Assay results from patent publication US9421188B2, “Combination product comprising phentermine and topiramate, and preparation method thereof” (Institute of Pharmacology and Toxicology Academy of …, priority 2012, dated 2016).

What was measured:
[1] = cited from earlier work
human plasma protein = details: plasma concentration range of 0.5-250 μm/ml; decreases with increase of plasma concentration; cited from earlier work
[2] = Effects of different dissolution media on release rate of sustained-release pellet of topiramate; assay type: physicochemical; details: artificial gastric fluid with pH of 1.2; degradation reaction
Experimental: In order to verify whether acidic, basic solvent media would influence the release rate of the sustained-release pellets of the present invention, 0.1 mol/L HCl (pH1.2) was prepared as artificial gastric fluid, […] phosphate buffer (pH6.8) was prepared as artificial intestinal fluid, and these media and water (500 ml) were used as release media separately, and rotation speed was 100 rpm, 37° C. 5 ml of Samples (supplemented with equivalent volume of media at the meantime) were separately taken at 1, 2, 4, 8, 12, 16, 20, 24 h, filtrated, and the subsequent filtrates were used as test solutions. High performance liquid chromatography (Appendix V D, Part II, Chinese Pharmacopoeia, 2010 Edition) was used, octylsilane-bonded silica gel was used as packing agent, 50% methanol was mobile phase, differential refractive detector was used, and flow rate was 1.5 ml per minute. 200 μl of test solution was taken and injected in liquid chromatography, and the peak area of topiramate as main drug was recorded; moreover, topiramate was taken as reference material and measured by the same method, and accumulative release percentages of drug at different time points were calculated by external standard method. The release profile of sample of Batch 1 in Example 6 (2) in the above mentioned media were drawn, and the results were shown in FIG. 2.

[3] = cited from earlier work; remark: listed apart in the source

CC1(C)O[C@@H]2[C@@H](CO[C@@]3(COS(N)(=O)=O)OC(C)(C)O[C@@H]23)O1 [Topiramate, 2,3,4,5-bis-O-(1-methylethylidene)-β-D-fructopyranose sulfamate]
Plasma half-life ([1]; human, in vivo): 19 to 25 h | Clearance for oral administration ([1]; oral administration): 22 to 36 mL/min | Human plasma protein binding ratio (human plasma protein): 15-41% | Stability of topiramate in artificial gastric fluid [2]: unstable | Solubility in organic solvents ([3]; acetone, chloroform, dimethylsulfoxide and ethanol): freely soluble | Solubility in alkaline solution ([3]; pH of 9-10, sodium hydroxide or sodium phosphate solutions): very freely soluble
